According to PMC9271048, “Probing strigolactone perception mechanisms with rationally designed small-molecule agonists stimulating germination of root parasitic weeds” (Nature Communications, 2022):
Where two headings read alike, the source gives them in different places.

How the values were obtained:
ShHTL7 [1] = molecular target: T1, ShHTL7 (Striga hermonthica, UniProt A0A0M3PNA2); test: Competitive inhibition of ShHTL7 with Yoshimulactone Green (YLG) as substrate; format: biochemical
Method: Based on the structural feature of the lead compound 2h, we selected three regions to perform further modification (Supplementary Fig. 6), to try to further improve bioactivity. Insertion of a carbonyl group between the bicyclo[2.2.1]hept-5-en-2-yl group and the piperazine ring was detrimental to binding affinity (Supplementary Fig. 6, region A). Removal of an oxygen atom in region B was found unfavorable to binding affinity as well. Therefore, we focused on modifying the benzene ring (region C) for 2h. A series of compounds with different groups at region C was synthesized (Supplementary Scheme 1). […] As SPR just measures the binding ability, another independent assay by using Yoshimulactone Green (YLG) as the fluorescent substrate was performed to determine the half-maximal inhibitory concentration (IC50) of these compounds against ShHTL7[22].
(§1) The excitation and emission wavelengths of YLG are 480 and 520 nm, respectively. We used a fluorescence spectrophotometer (CARY Eclipse) to detect the fluorescence intensity change of YLG during the enzymatic hydrolysis assay process. All the testing compounds and YLG were dissolved in DMSO and prepared as stock solutions just before use. […] The changes of fluorescence at 520 nm of each well were recorded every 1 min for 30 min. Using the reaction mixture without adding enzyme and tested compounds as the background control. After subtracting the background hydrolysis, a linear fluorescence increase in 8 min was used for further inspection. The IC50 values were determined via fitting relative inhibition percentages with the varying concentrations of compounds in Microsoft Excel.

[2] = Chemical reactivity analysis (HPLC, methanol/PBS pH 7.4); format: physicochemical
Method: Chemical reactivity is an important factor in the bioactivity of natural and synthetic SLs.
One hundred twenty microliters of sample solution was added to a solution of PBS (10 mM, pH 7.4, 810 μL) and methanol (270 μL). The solution was stirred vigorously for 30 s and then transferred to HPLC vial, and the vial was stored at 26 ± 1 °C. […] The analytical column was Extend-C18 (4.6 mm × 150 mm × 5 μm). The mobile phases were CH3CN and H2O (containing 0.1% HCO2H), VCH3CN:VH2O = 50:50, with a flow rate of 1 mL/min, and an injection volume of 5 μL. The percentage of remaining compounds in the solution was calculated from the peak area. The half-life times (t1/2) of samples were calculated.

ShHTL7 [3] = molecular target: T1, ShHTL7; test: biochemical; format: binding
Method: We used a sensitive, high-throughput Surface plasmon resonance (SPR) method to examine the binding affinities of the 51 candidates to the recombinant ShHTL7 protein, which was immobilized on the CM5 sensor chip. rac-GR24 was used as a positive control.
The interactions of small molecules with recombinant ShHTL7 were evaluated using the Biacore T200 system (GE Healthcare, USA) at 25 °C[47]. The purified ShHTL7 protein was immobilized on a CM5 sensor chip using the standard amine coupling procedure. […] PBS-P (10 mM phosphate buffer, 2.7 mM KCl, 137 mM NaCl, 0.05% Surfactant P20) containing 0.5% DMSO was used as the running buffer. For the screening experiments, candidates with different structures at 50 μM in the running buffer were injected individually at a flow rate of 30 μL min^−1. For binding affinity studies, compounds with different concentrations in running buffer were used. During the experiments, both the contact and dissociation times were set as 1 min. Data analysis was performed using the Biacore Evaluation Software (T200 Version 2.0). The affinity values (KD) were obtained by the kinetics analysis or the steady-state affinity method.

[4] = system: ShHTLs (10 HTL proteins in S. hermonthica); test: YLG-based competition assay on HTL proteins of S. hermonthica; format: biochemical, Striga hermonthica; conditions: Supplementary Fig. 27
Excerpt: (§2) In P. aegyptiaca, 5 KAI2s have been proposed as the SL receptors for the regulation of seed germination. […] The high sequence similarity may explain the consistency of these compounds in inducing germination in both S. hermonthica and P. aegyptiaca.
as §1
(§3) Supplementary Fig. 27. Binding of compounds 4a, (R)- and (S)-4a, and 4g-i to the HTL proteins in S. hermonthica and KAI2 protein homologs in P. aegyptiaca. In the competitive inhibitory activity assay, YLG (3 µM) was used as the fluorogenic substrate. Error bar indicates SD (n = 3 biologically independent experiments).
(§4) (1 picture or pasted object on this page, not shown here)

[5] = system: PaKAI2s (5 KAI2 protein homologs in P. aegyptiaca); test: YLG-based competition assay on KAI2 protein homologs of P. aegyptiaca; format: biochemical, Phelipanche aegyptiaca; conditions: Supplementary Fig. 27
Excerpt: as §2, §1, §3, §4

T1 sequence (A0A0M3PNA2 entry or part of it): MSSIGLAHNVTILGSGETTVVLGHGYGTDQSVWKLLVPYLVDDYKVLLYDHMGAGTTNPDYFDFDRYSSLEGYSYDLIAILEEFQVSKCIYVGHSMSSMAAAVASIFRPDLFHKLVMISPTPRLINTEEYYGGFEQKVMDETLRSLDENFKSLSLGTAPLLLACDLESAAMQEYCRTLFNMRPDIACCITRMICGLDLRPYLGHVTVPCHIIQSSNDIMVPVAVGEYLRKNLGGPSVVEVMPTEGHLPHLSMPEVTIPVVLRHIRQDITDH

## CC1=C[C@H](O/C=C2/C(=O)O[C@@H]3c4ccccc4C[C@H]23)OC1=O (racemic) [rac-GR24, reference compound]
ShHTL7 [1]; ShHTL7, YLG competition, Supplementary Fig. 27, read-out: IC50, replicate 1
  IC50: 0.633 µM
ShHTL7 [1]; ShHTL7, YLG competition, Supplementary Fig. 27, read-out: IC50, replicate 2
  IC50: 0.842 µM
ShHTL7 [1]; ShHTL7, YLG competition, Supplementary Fig. 27, read-out: IC50, replicate 3
  IC50: 0.614 µM
ShHTL7 [1]; ShHTL7, average of 3 replicates, Supplementary Fig. 27, read-out: IC50, average
  IC50: 0.696 µM
ShHTL7 [1]; YLG used as the substrate, means ± SD, n = 3, read-out: IC50 (Supplementary Table 1)
  IC50: 0.73 ± 0.11 µM
[2]; 1:3 methanol and PBS (10 mM) pH 7.4, HPLC
  half-life time (t1/2): 3.0 h
[2]; Supplementary Fig. 10 source data, methanol/PBS pH 7.4, 26 °C
  half-life time (t1/2), source data average: 3.031 h
ShHTL7 [3]; Supplementary Table 7, binding affinities between ShHTL7 and agonists by SPR, read-out: KD/μM
  Kd: 0.93 ± 0.17 µM
ShHTL7 [3]; recombinant ShHTL7 immobilized on CM5 chip, 25 °C, read-out: KD (SPR)
  Kd: ~0.93 µM
[4]; ShHTL2, YLG competition, read-out: IC50, replicate 1
  IC50: 26.2 µM
[4]; ShHTL2, YLG competition, read-out: IC50, replicate 2
  IC50: 25.2 µM
[4]; ShHTL2, YLG competition, read-out: IC50, replicate 3
  IC50: 25.5 µM
[4]; ShHTL2, average of 3 replicates, read-out: IC50, average
  IC50: 25.7 µM
[4]; ShHTL3, YLG competition, read-out: IC50, replicate 1
  IC50: 9.4 µM
[4]; ShHTL3, YLG competition, read-out: IC50, replicate 2
  IC50: 7.11 µM
[4]; ShHTL3, YLG competition, read-out: IC50, replicate 3
  IC50: 8.7 µM
[4]; ShHTL3, average of 3 replicates, read-out: IC50, average
  IC50: 8.4 µM
[4]; ShHTL4, YLG competition, read-out: IC50, replicate 1
  IC50: 0.239 µM
[4]; ShHTL4, YLG competition, read-out: IC50, replicate 2
  IC50: 0.239 µM
[4]; ShHTL4, YLG competition, read-out: IC50, replicate 3
  IC50: 0.28 µM
[4]; ShHTL4, average of 3 replicates, read-out: IC50, average
  IC50: 0.253 µM
[4]; ShHTL5, YLG competition, read-out: IC50, replicate 1
  IC50: 5.89 µM
[4]; ShHTL5, YLG competition, read-out: IC50, replicate 2
  IC50: 6.85 µM
[4]; ShHTL5, YLG competition, read-out: IC50, replicate 3
  IC50: 6.74 µM
[4]; ShHTL5, average of 3 replicates, read-out: IC50, average
  IC50: 6.49 µM
[4]; ShHTL6, YLG competition, read-out: IC50, replicate 1
  IC50: 2.28 µM
[4]; ShHTL6, YLG competition, read-out: IC50, replicate 2
  IC50: 1.87 µM
[4]; ShHTL6, YLG competition, read-out: IC50, replicate 3
  IC50: 2.23 µM
[4]; ShHTL6, average of 3 replicates, read-out: IC50, average
  IC50: 2.13 µM
[4]; ShHTL8, YLG competition, read-out: IC50, replicate 1
  IC50: 6.15 µM
[4]; ShHTL8, YLG competition, read-out: IC50, replicate 2
  IC50: 6.78 µM
[4]; ShHTL8, YLG competition, read-out: IC50, replicate 3
  IC50: 4.51 µM
[4]; ShHTL8, average of 3 replicates, read-out: IC50, average
  IC50: 5.81 µM
[4]; ShHTL9, YLG competition, read-out: IC50, replicate 1
  IC50: 4.91 µM
[4]; ShHTL9, YLG competition, read-out: IC50, replicate 2
  IC50: 4.06 µM
[4]; ShHTL9, YLG competition, read-out: IC50, replicate 3
  IC50: 5.17 µM
[4]; ShHTL9, average of 3 replicates, read-out: IC50, average
  IC50: 4.71 µM
[4]; ShHTL10, YLG competition, read-out: IC50, replicate 1
  IC50: 4.93 µM
[4]; ShHTL10, YLG competition, read-out: IC50, replicate 2
  IC50: 6.56 µM
[4]; ShHTL10, YLG competition, read-out: IC50, replicate 3
  IC50: 5.51 µM
[4]; ShHTL10, average of 3 replicates, read-out: IC50, average
  IC50: 5.67 µM
[4]; ShHTL11, YLG competition, read-out: IC50, replicate 1
  IC50: 3.27 µM
[4]; ShHTL11, YLG competition, read-out: IC50, replicate 2
  IC50: 3.14 µM
[4]; ShHTL11, YLG competition, read-out: IC50, replicate 3
  IC50: 3.16 µM
[4]; ShHTL11, average of 3 replicates, read-out: IC50, average
  IC50: 3.19 µM
[5]; KAI2C, YLG competition, read-out: IC50, replicate 1
  IC50: 7.31 µM
[5]; KAI2C, YLG competition, read-out: IC50, replicate 2
  IC50: 5.69 µM
[5]; KAI2C, YLG competition, read-out: IC50, replicate 3
  IC50: 6.56 µM
[5]; KAI2C, average of 3 replicates, read-out: IC50, average
  IC50: 6.52 µM
[5]; KAI2d1, YLG competition, read-out: IC50, replicate 1
  IC50: 1.78 µM
[5]; KAI2d1, YLG competition, read-out: IC50, replicate 2
  IC50: 2.83 µM
[5]; KAI2d1, YLG competition, read-out: IC50, replicate 3
  IC50: 2.39 µM
[5]; KAI2d1, average of 3 replicates, read-out: IC50, average
  IC50: 2.33 µM
[5]; KAI2d2, YLG competition, read-out: IC50, replicate 1
  IC50: 5.14 µM
[5]; KAI2d2, YLG competition, read-out: IC50, replicate 2
  IC50: 2.89 µM
[5]; KAI2d2, YLG competition, read-out: IC50, replicate 3
  IC50: 3.46 µM
[5]; KAI2d2, average of 3 replicates, read-out: IC50, average
  IC50: 3.83 µM
[5]; KAI2d3, YLG competition, read-out: IC50, replicate 1
  IC50: 2.27 µM
[5]; KAI2d3, YLG competition, read-out: IC50, replicate 2
  IC50: 2.04 µM
[5]; KAI2d3, YLG competition, read-out: IC50, replicate 3
  IC50: 1.55 µM
[5]; KAI2d3, average of 3 replicates, read-out: IC50, average
  IC50: 1.95 µM
[5]; KAI2d4, YLG competition, read-out: IC50, replicate 1
  IC50: 6.41 µM
[5]; KAI2d4, YLG competition, read-out: IC50, replicate 2
  IC50: 5.83 µM
[5]; KAI2d4, YLG competition, read-out: IC50, replicate 3
  IC50: 7.25 µM
[5]; KAI2d4, average of 3 replicates, read-out: IC50, average
  IC50: 6.5 µM
